# Legend:
# FLT3-ITD = molecular target: T1, FLT3-ITD (Homo sapiens, UniProt P36888); test: FLT3-ITD biochemical kinase assay (AlphaScreen)
# T1 construct: FLT3-ITD; Invitrogen #PV6190
# T1 sequence (P36888 1-993): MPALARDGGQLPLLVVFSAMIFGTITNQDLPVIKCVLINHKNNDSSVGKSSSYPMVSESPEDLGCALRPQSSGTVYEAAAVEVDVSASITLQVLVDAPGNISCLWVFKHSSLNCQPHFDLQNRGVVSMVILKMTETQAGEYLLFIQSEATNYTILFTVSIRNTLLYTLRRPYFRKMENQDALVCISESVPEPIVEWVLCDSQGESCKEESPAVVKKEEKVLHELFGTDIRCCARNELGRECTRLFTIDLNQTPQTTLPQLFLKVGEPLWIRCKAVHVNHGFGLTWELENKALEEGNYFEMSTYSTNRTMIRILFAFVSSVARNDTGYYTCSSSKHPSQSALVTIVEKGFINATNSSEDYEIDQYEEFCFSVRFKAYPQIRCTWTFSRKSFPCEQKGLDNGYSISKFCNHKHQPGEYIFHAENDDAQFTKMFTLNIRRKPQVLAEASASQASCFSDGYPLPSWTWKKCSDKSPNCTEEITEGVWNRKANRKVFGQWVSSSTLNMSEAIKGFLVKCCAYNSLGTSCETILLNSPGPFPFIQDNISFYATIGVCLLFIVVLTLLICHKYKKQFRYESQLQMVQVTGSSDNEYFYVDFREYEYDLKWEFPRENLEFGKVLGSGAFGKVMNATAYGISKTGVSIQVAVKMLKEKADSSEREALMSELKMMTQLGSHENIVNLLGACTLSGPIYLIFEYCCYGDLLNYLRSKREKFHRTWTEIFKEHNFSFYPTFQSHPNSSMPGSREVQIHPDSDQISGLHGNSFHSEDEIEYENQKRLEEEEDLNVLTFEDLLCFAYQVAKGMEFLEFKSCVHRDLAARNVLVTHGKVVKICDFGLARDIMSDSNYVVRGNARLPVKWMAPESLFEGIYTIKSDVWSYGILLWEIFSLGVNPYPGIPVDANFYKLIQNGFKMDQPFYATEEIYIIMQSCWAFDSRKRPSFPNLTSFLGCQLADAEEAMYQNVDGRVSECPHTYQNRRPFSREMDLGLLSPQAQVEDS
# Outline: (§1)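 Recombinant kinase, biotin-GG(EEEEY)10EE 30 nM final, ATP 10 μM (D835Y) / 100 μM (ITD). Stop/detect: SA donor beads 20 min RT, then PY20 acceptor beads 60 min RT. AlphaScreen 580 nm signal; IC50.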
# FLT3-D835Y = molecular target: T2, FLT3-D835Y (Homo sapiens, UniProt P36888, D835Y); test: FLT3-D835Y biochemical kinase assay (AlphaScreen)
# T2 construct: purchased Invitrogen PV3967
# T2 sequence (P36888 27-993 D835Y): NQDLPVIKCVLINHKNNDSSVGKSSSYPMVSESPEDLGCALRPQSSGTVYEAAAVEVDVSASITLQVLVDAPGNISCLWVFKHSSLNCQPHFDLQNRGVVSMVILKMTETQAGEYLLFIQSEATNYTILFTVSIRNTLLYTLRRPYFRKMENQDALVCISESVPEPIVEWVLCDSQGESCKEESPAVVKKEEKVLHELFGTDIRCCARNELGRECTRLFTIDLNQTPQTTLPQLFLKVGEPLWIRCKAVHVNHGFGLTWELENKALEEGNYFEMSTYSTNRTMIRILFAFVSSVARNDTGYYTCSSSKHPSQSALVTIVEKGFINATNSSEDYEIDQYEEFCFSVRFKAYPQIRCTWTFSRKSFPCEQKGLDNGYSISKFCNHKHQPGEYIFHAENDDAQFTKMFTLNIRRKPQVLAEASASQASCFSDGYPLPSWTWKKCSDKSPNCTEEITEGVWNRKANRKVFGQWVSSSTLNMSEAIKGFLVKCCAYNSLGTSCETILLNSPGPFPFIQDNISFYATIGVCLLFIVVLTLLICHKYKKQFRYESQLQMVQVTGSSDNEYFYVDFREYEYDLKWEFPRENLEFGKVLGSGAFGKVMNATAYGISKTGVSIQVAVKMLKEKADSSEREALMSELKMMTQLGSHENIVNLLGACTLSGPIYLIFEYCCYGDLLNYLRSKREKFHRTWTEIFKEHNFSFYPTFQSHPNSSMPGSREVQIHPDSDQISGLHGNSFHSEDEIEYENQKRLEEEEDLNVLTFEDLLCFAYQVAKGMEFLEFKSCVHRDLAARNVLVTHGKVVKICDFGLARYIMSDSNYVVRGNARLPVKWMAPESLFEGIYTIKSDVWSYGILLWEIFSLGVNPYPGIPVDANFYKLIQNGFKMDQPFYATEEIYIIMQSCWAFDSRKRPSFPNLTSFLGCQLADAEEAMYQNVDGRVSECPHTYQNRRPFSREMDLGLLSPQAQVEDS
# Outline: as §1
# c-Kit = c-Kit (Homo sapiens, UniProt P10721); test: c-Kit biochemical assay (per US 2007/0032519)
# Chain of c-Kit (P10721 26-976): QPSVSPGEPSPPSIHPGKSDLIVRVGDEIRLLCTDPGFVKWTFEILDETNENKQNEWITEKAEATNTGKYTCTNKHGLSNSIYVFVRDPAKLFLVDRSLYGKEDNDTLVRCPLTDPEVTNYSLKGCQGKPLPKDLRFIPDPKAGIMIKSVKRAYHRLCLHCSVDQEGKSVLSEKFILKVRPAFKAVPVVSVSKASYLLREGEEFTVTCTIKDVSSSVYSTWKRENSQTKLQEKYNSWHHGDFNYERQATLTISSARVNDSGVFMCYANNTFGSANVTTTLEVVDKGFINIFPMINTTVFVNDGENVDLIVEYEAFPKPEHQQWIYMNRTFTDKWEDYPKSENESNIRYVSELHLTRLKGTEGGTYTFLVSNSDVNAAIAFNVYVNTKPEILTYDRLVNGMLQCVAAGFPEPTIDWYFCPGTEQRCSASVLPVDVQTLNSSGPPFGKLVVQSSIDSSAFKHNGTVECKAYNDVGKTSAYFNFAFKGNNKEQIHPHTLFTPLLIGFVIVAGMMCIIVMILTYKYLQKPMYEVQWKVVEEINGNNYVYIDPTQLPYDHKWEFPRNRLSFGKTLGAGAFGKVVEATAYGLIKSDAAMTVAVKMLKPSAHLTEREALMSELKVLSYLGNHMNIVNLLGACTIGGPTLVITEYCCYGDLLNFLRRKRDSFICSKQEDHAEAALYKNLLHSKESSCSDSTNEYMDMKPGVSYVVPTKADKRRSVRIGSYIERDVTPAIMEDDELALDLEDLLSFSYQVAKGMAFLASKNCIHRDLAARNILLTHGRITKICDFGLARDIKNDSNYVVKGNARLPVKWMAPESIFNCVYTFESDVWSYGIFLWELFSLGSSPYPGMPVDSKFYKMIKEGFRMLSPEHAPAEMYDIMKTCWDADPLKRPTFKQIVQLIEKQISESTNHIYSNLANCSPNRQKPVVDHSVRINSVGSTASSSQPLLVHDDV
# Method: The following Table 2 provides data indicating FLT3 ITD, FLT3 D835Y, and KIT biochemical activity, and BaF3 FLT3 ITD/F69L cellular inhibitory activity for exemplary compounds described in this disclosure. In the table below, activity is provided as follows: +++=0.0001<IC50<1 μM; ++=1 μM<IC50<10 μM, +=10 μM<IC50<200 μM. Assays for the biochemical activity of c-Kit and FMS were conducted according to those assays described in US Patent Application Publication number US 2007/0032519, the disclosure of which is hereby incorporated by reference in its entirety.
Compound,IC50 (FLT3-ITD),IC50 (FLT3-D835Y),IC50 (c-Kit)
"Cn1cnc2ccc(-c3c[nH]c4ncc(C5=CCN(C(=O)C6CC6)C5)nc34)cc21 [P-082, cyclopropyl-[3-[7-(3-methylbenzimidazol-5-yl)-5H-pyrrolo[2,3-b]pyrazin-2-yl]-2,5-dihydropyrrol-1-yl]methanone]",0.0001 to 1 µM,0.0001 to 1 µM,1 to 10 µM
"CS(=O)(=O)Nc1cccc(-c2cnc3[nH]cc(-c4ccc5[nH]cnc5c4)c3c2)c1 [P-013, N-[3-[3-(1H-benzimidazol-5-yl)-1H-pyrrolo[2,3-b]pyridin-5-yl]phenyl]methanesulfonamide]",0.0001 to 1 µM,0.0001 to 1 µM,1 to 10 µM
"Cn1cnc2ccc(-c3c[nH]c4ncc(F)cc34)cc21 [P-028, 5-fluoro-3-(3-methylbenzimidazol-5-yl)-1H-pyrrolo[2,3-b]pyridine]",0.0001 to 1 µM,0.0001 to 1 µM,10 to 200 µM
"Cn1cc(-c2ccc(-c3cnc4[nH]cc(-c5ccc6ncn(C(C)(C)C)c6c5)c4n3)cc2)cn1 [P-306, 7-(3-tert-butylbenzimidazol-5-yl)-2-[4-(1-methylpyrazol-4-yl)phenyl]-5H-pyrrolo[2,3-b]pyrazine]",0.0001 to 1 µM,0.0001 to 1 µM,1 to 10 µM
"Cn1cnc2ccc(-c3c[nH]c4ncc(Cl)cc34)cc21 [P-019, 5-chloro-3-(3-methylbenzimidazol-5-yl)-1H-pyrrolo[2,3-b]pyridine]",0.0001 to 1 µM,0.0001 to 1 µM,10 to 200 µM
"CS(=O)(=O)Nc1cccc(-c2cnc3[nH]cc(-c4ccc5ncn(CC(F)(F)F)c5c4)c3n2)c1 [P-069, N-[3-[7-[3-(2,2,2-trifluoroethyl)benzimidazol-5-yl]-5H-pyrrolo[2,3-b]pyrazin-2-yl]phenyl]methanesulfonamide]",0.0001 to 1 µM,0.0001 to 1 µM,10 to 200 µM
"CC(C)(C)n1cnc2ccc(-c3c[nH]c4ncc(-c5cnc(C(N)=O)c(Cl)c5)nc34)cc21 [P-364, 5-[7-(3-tert-butylbenzimidazol-5-yl)-5H-pyrrolo[2,3-b]pyrazin-2-yl]-3-chloro-pyridine-2-carboxamide]",0.0001 to 1 µM,0.0001 to 1 µM,1 to 10 µM
"Cc1nn(C(C)C)cc1-c1cnc2[nH]cc(-c3ccc4ncn(C(C)(C)C)c4c3)c2n1 [P-381, 7-(3-tert-butylbenzimidazol-5-yl)-2-(1-isopropyl-3-methyl-pyrazol-4-yl)-5H-pyrrolo[2,3-b]pyrazine]",0.0001 to 1 µM,0.0001 to 1 µM,0.0001 to 1 µM
"c1cnc2[nH]cc(-c3ccc4[nH]ncc4c3)c2c1 [P-001, 3-(1H-indazol-5-yl)-1H-pyrrolo[2,3-b]pyridine]",1 to 10 µM,1 to 10 µM,0.0001 to 1 µM
"Cn1cnc2ccc(-c3c[nH]c4ncc(-c5cccc(N6CCOCC6)c5)cc34)cc21 [P-095, 4-[3-[3-(3-methylbenzimidazol-5-yl)-1H-pyrrolo[2,3-b]pyridin-5-yl]phenyl]morpholine]",0.0001 to 1 µM,0.0001 to 1 µM,1 to 10 µM
"COc1cnc2[nH]cc(-c3ccc4ncsc4c3)c2c1 [P-029, 6-(5-methoxy-1H-pyrrolo[2,3-b]pyridin-3-yl)-1,3-benzothiazole]",0.0001 to 1 µM,0.0001 to 1 µM,1 to 10 µM
"Cn1cnc2ccc(-c3c[nH]c4ncc(-c5cnc(C6CC6)nc5)cc34)cc21 [P-039, 5-(2-cyclopropylpyrimidin-5-yl)-3-(3-methylbenzimidazol-5-yl)-1H-pyrrolo[2,3-b]pyridine]",0.0001 to 1 µM,0.0001 to 1 µM,1 to 10 µM
"Cn1cnc2ccc(-c3c[nH]c4ncc(-c5ccc(S(=O)(=O)N6CCCC6)cc5)cc34)cc21 [P-091, 1-methyl-6-[5-(4-pyrrolidin-1-ylsulfonylphenyl)-1H-pyrrolo[2,3-b]pyridin-3-yl]benzimidazole]",0.0001 to 1 µM,0.0001 to 1 µM,0.0001 to 1 µM
"Cn1cnc2ccc(-c3c[nH]c4ncc(-c5cccc(OC(F)(F)F)c5)cc34)cc21 [P-131, 1-methyl-6-[5-[3-(trifluoromethoxy)phenyl]-1H-pyrrolo[2,3-b]pyridin-3-yl]benzimidazole]",0.0001 to 1 µM,0.0001 to 1 µM,10 to 200 µM
"CN(C)c1ccc(-c2cnc3[nH]cc(-c4ccc5ncn(C(C)(C)C)c5c4)c3n2)cn1 [P-379, 5-[7-(3-tert-butylbenzimidazol-5-yl)-5H-pyrrolo[2,3-b]pyrazin-2-yl]-N,N-dimethyl-pyridin-2-amine]",0.0001 to 1 µM,0.0001 to 1 µM,0.0001 to 1 µM
"COc1cc(-c2cnc3[nH]cc(-c4ccc5ncn(C)c5c4)c3c2)ccc1C#N [P-117, 2-methoxy-4-[3-(3-methylbenzimidazol-5-yl)-1H-pyrrolo[2,3-b]pyridin-5-yl]benzonitrile]",0.0001 to 1 µM,0.0001 to 1 µM,1 to 10 µM
"Cn1cnc2ccc(-c3c[nH]c4ncc(-c5cccc(S(N)(=O)=O)c5)cc34)cc21 [P-044, 3-[3-(3-methylbenzimidazol-5-yl)-1H-pyrrolo[2,3-b]pyridin-5-yl]benzenesulfonamide]",0.0001 to 1 µM,0.0001 to 1 µM,10 to 200 µM
"COc1ccc2c(-c3ccc4ncn(C)c4c3)c[nH]c2n1 [P-034, 6-methoxy-3-(3-methylbenzimidazol-5-yl)-1H-pyrrolo[2,3-b]pyridine]",1 to 10 µM,1 to 10 µM,10 to 200 µM
"COc1cc(-c2cnc3[nH]cc(-c4ccc5ncn(CC(F)(F)F)c5c4)c3n2)ccn1 [P-098, 2-(2-methoxy-4-pyridyl)-7-[3-(2,2,2-trifluoroethyl)benzimidazol-5-yl]-5H-pyrrolo[2,3-b]pyrazine]",0.0001 to 1 µM,0.0001 to 1 µM,10 to 200 µM
"COc1cccc(-c2cnc3[nH]cc(-c4ccc5ncn(C)c5c4)c3c2)c1 [P-088, 5-(3-methoxyphenyl)-3-(3-methylbenzimidazol-5-yl)-1H-pyrrolo[2,3-b]pyridine]",0.0001 to 1 µM,0.0001 to 1 µM,1 to 10 µM
"Cn1cnc2ccc(-c3c[nH]c4ncc(-c5cccc(C#N)c5)cc34)cc21 [P-089, 3-[3-(3-methylbenzimidazol-5-yl)-1H-pyrrolo[2,3-b]pyridin-5-yl]benzonitrile]",0.0001 to 1 µM,0.0001 to 1 µM,10 to 200 µM
"CC(C)N1CCOc2ccc(-c3c[nH]c4ncc(-c5cccc(NS(C)(=O)=O)c5)nc34)cc21 [P-086, N-[3-[7-(4-isopropyl-2,3-dihydro-1,4-benzoxazin-6-yl)-5H-pyrrolo[2,3-b]pyrazin-2-yl]phenyl]methanesulfonamide]",0.0001 to 1 µM,0.0001 to 1 µM,10 to 200 µM

# — patent US10160755B2 (Plexxikon Inc., priority 2015, dated 2018)
